The values below are quoted from earlier work in patent publication US20240058323A1, “PHARMACEUTICAL COMPOSITION CONTAINING PYRROLOQUINOLINE QUINONE TRILITHIUM SALT NONAHYDRATE COMPOUND, CAPSULE, AND PREPARATION METHOD THEREFOR” (SHANGHAI RAISING PHARMACEUTICAL CO., LTD, priority 2020, published 2024).

Counter-ions that a name gives are not always drawn.

The conditions of the series: crystalline nonahydrate API.

As to `O=C(O)c1cc(C(=O)O)c2c(n1)C(=O)C(=O)c1cc(C(=O)O)[nH]c1-2` [4,5-dioxo-4,5-dihydro-1H-pyrrolo[2,3-f]quinoline-2,7,9-tricarboxylic acid lithium salt nonahydrate compound], the “temperature above which water is rapidly and irreversibly lost” value is “higher than 60 °C”.
